Holding throughout (assay): ≥ marks a high value that may be exact or a test limit, other limits are often not marked, values filed in µg/mL are converted to µM
The subject of assay [1] is Streptococcus mutans.
In assay [2] the test system is Staphylococcus aureus ATCC 25923.
Assay [3] relates to Batrachochytrium dendrobatidis JEL-197.
In assay [4] the test system is Escherichia coli ATCC 25726.
Assay [5] concerns Candida albicans ATCC 90028.
The test system of assay [6] is Yersinia pestis.
Assay [7] deals with Salmonella typhimurium.
For assay [8], the system named is Neisseria meningitidis.
For assay [9], the system named is Staphylococcus aureus MR.
For assay [10], the system named is Staphylococcus aureus.
For assay [11], the system named is Escherichia coli.
For assay [12], the system named is Mycobacterium tuberculosis.
For assay [13], the system named is Pseudomonas aeruginosa.
The test system of assay [14] is Staphylococcus aureus Cowan 1.
Assay [15] concerns Escherichia coli D21.
For assay [16], the system named is Shigella flexneri ATCC 203.
Assay [17] has as its system Pseudomonas aeruginosa OT97.
In assay [18] the test system is Proteus vulgaris OX19 ATCC 6380.
The subject of assay [19] is Staphylococcus aureus JC-1.
The test system of assay [20] is Bacillus megaterium Bm11.
For assay [21], the system named is Bacillus subtilis ATCC 6633.
Assay [22] deals with Pseudomonas aeruginosa 08031014.
Assay [23] deals with Pseudomonas aeruginosa PAO1.
Assay [24] concerns Staphylococcus aureus ATCC 43300.
Assay [25] relates to Pseudomonas aeruginosa ATCC 27853.
For assay [26], the system named is Escherichia coli ATCC 25922.
The subject of assay [27] is Escherichia coli ML-35p.
For assay [28], the system named is Candida albicans ATCC 20032.
Assay [29] deals with Bacillus thuringiensis AB92037.
For assay [30], the system named is Staphylococcus aureus P1369.
The test system of assay [31] is Staphylococcus sp.
Assay [32] concerns Bacillus subtilis AB91021.
The subject of assay [33] is Staphylococcus aureus P1374.
Assay [34] relates to Escherichia coli AB94012.
Assay [35] deals with Staphylococcus aureus P1386.
For assay [36], the system named is Staphylococcus aureus AB94004.
For assay [37], the system named is Pseudomonas aeruginosa AB93066.
For assay [38], the system named is Staphylococcus epidermidis P1368.
Assay [39] has as its system Staphylococcus aureus P1383.
In assay [40] the test system is Staphylococcus epidermidis P1389.
In assay [41] the test system is Staphylococcus aureus P1381.
For assay [42], the system named is Staphylococcus aureus P969.
Assay [43] concerns Staphylococcus epidermidis P1111.

Six compounds from DBAASP can be followed below.

Each structure is given as a SMILES string. Values after ≈ are worked out from the molar mass of the structure shown.

As usually defined, the MIC is the lowest concentration that inhibits growth of the organism. Low readings indicate greater potency, high ones weaker potency. Compound `CC[C@H](C)[C@H](NC(=O)[C@H](CCC(=O)O)NC(=O)[C@H](CCCCN)NC(=O)[C@@H](NC(=O)[C@H](CC(N)=O)NC(=O)[C@H](CCC(=O)O)NC(=O)[C@H](C)NC(=O)[C@H](CC(C)C)NC(=O)[C@@H](N)CCCCN)C(C)C)C(=O)N[C@@H](CC(C)C)C(=O)N[C@@H](CCCN=C(N)N)C(=O)O` [KLAENVKEILR] returned an MIC in assay [1] of at least 190 µM.

Turning to `CC[C@H](C)[C@H](NC(=O)CN)C(=O)N[C@@H](Cc1ccccc1)C(=O)N[C@@H](CO)C(=O)N[C@@H](C)C(=O)N[C@@H](CC(C)C)C(=O)N[C@@H](C)C(=O)N[C@@H](C)C(=O)NCC(=O)N[C@H](C(=O)N[C@@H](CCCCN)C(=O)N[C@@H](CC(C)C)C(=O)N[C@@H](CC(C)C)C(=O)NCC(=O)N[C@@H](CC(N)=O)C(=O)N[C@H](C(=O)N[C@@H](CC(C)C)C(=O)N[C@@H](Cc1ccccc1)C(=O)N[C@@H](CCCCN)C(=O)N[C@@H](CCSC)C(=O)N[C@@H](C)C(=O)NCC(=O)N[C@@H](CCCCN)C(=O)N[C@@H](C)C(=O)NCC(=O)N[C@@H](C)C(=O)N[C@@H](CCC(=O)O)C(=O)N[C@@H](Cc1cnc[nH]1)C(=O)N[C@@H](CC(C)C)C(=O)N[C@@H](C)C(=O)N[C@H]1CSSC[C@@H](C(=O)O)NC(=O)[C@H](CCC(N)=O)NC(=O)[C@H](CC(N)=O)NC(=O)[C@H]([C@@H](C)O)NC(=O)[C@H](C)NC(=O)[C@H](CCCCN)NC1=O)[C@@H](C)O)C(C)C` [GIFSALAAGVKLLGNTLFKMAGKAGAEHLACKATNQC], the MIC in [2] is 12.5 µM (≈ 46.3 µg/mL); in [3], 12.5 µM (≈ 46.3 µg/mL); in assay [4], 25 µM (≈ 92.6 µg/mL); in assay [5] it was at least 50 µM.

Consider `CC[C@H](C)[C@H](NC(=O)CNC(=O)CNC(=O)[C@H](CCSC)NC(=O)[C@H](CC(C)C)NC(=O)[C@H](CCC(=O)O)NC(=O)[C@H](CCCN=C(N)N)NC(=O)CNC(=O)[C@H](CCCN=C(N)N)NC(=O)[C@H](CCSC)NC(=O)CNC(=O)[C@@H](NC(=O)[C@H](CCCN=C(N)N)NC(=O)[C@H](CC(C)C)NC(=O)[C@@H](N)CS)[C@@H](C)CC)C(=O)NCC(=O)N[C@@H](CCCCN)C(=O)N[C@H](C(=O)N[C@@H](CCSC)C(=O)O)[C@@H](C)O` [CLRIGMRGRELMGGIGKTM], for which the MIC was at least 144 µM in assay [6]; at least 144 µM in assay [7]; at least 144 µM in assay [8]; at least 144 µM in [9]; 144 µM (≈ 300 µg/mL) in assay [10]; 144 µM (≈ 300 µg/mL) in assay [11]. For the same compound, the figures for the MIC in assay [12] and in [13] were at least 144 µM and 144 µM (≈ 300 µg/mL), respectively.

For the compound `CC[C@H](C)[C@H](NC(=O)[C@H](CCCCN)NC(=O)[C@@H](NC(=O)[C@@H](NC(=O)[C@H](CCC(N)=O)NC(=O)CNC(=O)[C@H](Cc1cnc[nH]1)NC(=O)[C@H](CCC(N)=O)NC(=O)[C@H](CC(N)=O)NC(=O)[C@H](CCC(N)=O)NC(=O)[C@@H](N)C(C)C)C(C)C)C(C)C)C(=O)N[C@@H](Cc1ccccc1)C(=O)N[C@@H](Cc1cnc[nH]1)C(=O)N[C@@H](Cc1cnc[nH]1)C(=O)O` [VQNQHGQVVKIFHH], the MIC in [14] was at least 6000 µM; in [15], at least 6000 µM; in assay [16], at least 4800 µM; in assay [17], at least 6000 µM; in [18], at least 6000 µM; in [19], at least 3200 µM. Besides, the MIC in [20] is at least 4800 µM; in assay [21] it was at least 6000 µM.

Take `CC[C@H](C)[C@H](NC(=O)[C@H](CCCCN)NC(=O)[C@@H](NC(=O)[C@H](Cc1c[nH]c2ccccc12)NC(=O)[C@H](CS)NC(=O)[C@H](CCCNC(=N)N)NC(=O)[C@@H]1CCCN1C(=O)[C@H](CCCNC(=N)N)NC(=O)[C@H](CC(C)C)NC(=O)[C@H](CO)NC(=O)[C@@H](N)CCCCN)[C@@H](C)CC)C(=O)N[C@@H](CCCCN)C(=O)N[C@@H](Cc1ccccc1)C(=O)N[C@@H](CCCNC(=N)N)C(=O)N[C@@H](CS)C(=O)N[C@@H](CCCCN)C(=O)N[C@@H](CO)C(=O)N[C@@H](CC(C)C)C(=O)N[C@@H](CCCCN)C(=O)N[C@@H](Cc1ccccc1)C(=O)O` [KSLRPRCWIKIKFRCKSLKF]: the MIC was 14.8 µM (≈ 37.5 µg/mL) in assay [22]; 3.7 µM (≈ 9.38 µg/mL) in assay [2]; 3.7 µM (≈ 9.38 µg/mL) in assay [23]; 3.7 µM (≈ 9.38 µg/mL) in assay [24]; 20.9 µM (≈ 53 µg/mL) in assay [11]; 3.7 µM (≈ 9.38 µg/mL) in [25]. Besides, the MIC was 7.39 µM (≈ 18.8 µg/mL) in assay [26], 7.39 µM (≈ 18.8 µg/mL) in assay [27], at least 39.4 µM in assay [21] and 3.7 µM (≈ 9.38 µg/mL) in assay [28].

As to `CC[C@H](C)[C@H](NC(=O)[C@H](CC(C)C)NC(=O)[C@H](CO)NC(=O)[C@H](CCCCN)NC(=O)[C@@H](NC(=O)[C@H](CC(C)C)NC(=O)[C@H](CCCN=C(N)N)NC(=O)[C@H](Cc1ccccc1)NC(=O)[C@@H](N)CC(C)C)[C@@H](C)CC)C(=O)N[C@@H](CCCCN)C(=O)N[C@@H](CCCN=C(N)N)C(=O)N[C@@H](CC(C)C)C(=O)N[C@H](C(=O)N[C@@H](CO)C(=O)N[C@@H](C)C(=O)N[C@@H](Cc1ccccc1)C(=O)N[C@@H](CCCCN)C(N)=O)C(C)C` [LFRLIKSLIKRLVSAFK], the MIC is 12.3 µM (≈ 25 µg/mL) in [29]; 3.94 µM (≈ 8 µg/mL) in assay [30]; 2.46 µM (≈ 5 µg/mL) in assay [31]; 12.3 µM (≈ 25 µg/mL) in assay [32]; 3.94 µM (≈ 8 µg/mL) in [33]; 6.15 µM (≈ 12.5 µg/mL) in [34]. Also, the MIC in assay [35] is 12.3 µM (≈ 25 µg/mL); in assay [36], 2.46 µM (≈ 5 µg/mL); in assay [37], at least 49.2 µM; in [38], 3.94 µM (≈ 8 µg/mL); in [39], 4.92 µM (≈ 10 µg/mL); in [40], 3.94 µM (≈ 8 µg/mL). The MIC in assay [41] worked out at 9.84 µM (≈ 20 µg/mL); in assay [42], 19.7 µM (≈ 40 µg/mL); in [43], 9.84 µM (≈ 20 µg/mL).
